# Measured values: PubChem BioAssay AID1259408 (Genetic Toxicology Data Bank (GENE-TOX), 2018)
# The source made the active and inactive calls. The rule behind the calls is not given here.
# Tested on: GENE-TOX genotoxicity assays, various organisms and cells
# Experiment: GENE-TOX mutagenicity studies
# Conditions: for call: Assay Type: In vivo carcinogenicity studies
# [1] = Species/Cell Type: Drosophila melanogaster, Assay Type: Sex-linked recessive lethal gene mutation, Assay Code: SRL+, Evaluation Type: Evaluation A (Pre-1980)
# [2] = Species/Cell Type: Nonhuman, Assay Type: Sister-chromatid exchange (SCE) in vitro, Assay Code: SC2+, Evaluation Type: Evaluation B (Post-1980)
# [3] = Species/Cell Type: Salmonella typhimurium (one or more of the five standard strains: TA98, TA100, TA1535, TA1537, and TA1538), Assay Type: Histidine reverse gene mutation, Ames assay, Assay Code: SAL+*, Activation: With metabolic activation, Evaluation Type: Evaluation A (Pre-1980)
# [4] = Species/Cell Type: Mammalian polychromatic erythrocytes, Assay Type: Micronucleus test, chromosome aberrations, Assay Code: MNTT, Evaluation Type: Evaluation B (Post-1980)
# [5] = Species/Cell Type: Human lymphocytes, Assay Type: Sister-chromatid exchange (SCE) in vitro, Assay Code: SCLT, Evaluation Type: Evaluation B (Post-1980)
# [6] = Species/Cell Type: Salmonella typhimurium (one or more of the five standard strains: TA98, TA100, TA1535, TA1537, and TA1538), Assay Type: Histidine reverse gene mutation, Ames assay, Assay Code: SAL+, Evaluation Type: Evaluation A (Pre-1980)
# [7] = Species/Cell Type: Drosophila melanogaster, Assay Type: Sex-linked recessive lethal gene mutation, Assay Code: SRLT, Evaluation Type: Evaluation A (Pre-1980)
# [8] = Species/Cell Type: Escherichia coli polA (W3119 vs P3478), Assay Type: Rec-assay, DNA effects (bacterial DNA repair), Assay Code: RE1+, Evaluation Type: Evaluation A (Pre-1980)
# [9] = Species/Cell Type: Human diploid fibroblasts, Assay Type: Unscheduled DNA synthesis (UDS) in vitro, DNA effects, Assay Code: UDH-, Evaluation Type: Evaluation A (Pre-1980)
# [10] = Species/Cell Type: Saccharomyces cerevisiae, Assay Type: Mitotic recombination or gene conversion, Assay Code: YEH-, Evaluation Type: Evaluation A (Pre-1980)
# [11] = Species/Cell Type: Salmonella typhimurium (one or more of the five standard strains: TA98, TA100, TA1535, TA1537, and TA1538), Assay Type: Histidine reverse gene mutation, Ames assay, Assay Code: SALT, Evaluation Type: Evaluation A (Pre-1980)
# [12] = Species/Cell Type: Bacillus subtilis (H17 vs M45), Assay Type: Rec-assay, spot test, DNA effects (bacterial DNA repair), Assay Code: REW+, Evaluation Type: Evaluation A (Pre-1980)
# [13] = Species/Cell Type: Saccharomyces cerevisiae, Assay Type: Mitotic recombination or gene conversion, Assay Code: YEC+, Evaluation Type: Evaluation A (Pre-1980)
# [14] = Species/Cell Type: Saccharomyces cerevisiae, Assay Type: Mitotic recombination or gene conversion, Assay Code: YEC-, Evaluation Type: Evaluation A (Pre-1980)
compound,measurement,setting,value
CN(Cc1ccccc1)N=O,mutagenic call,"Species/Cell Type: Arabidopsis species, Assay Type: Gene mutation, Assay Code: ARM+D, Dose Response: With dose response, Evaluation Type: Evaluation A (Pre-1980)",active; positive
same,mutagenic call,[1],active; positive
same,mutagenic call,[2],active; positive
same,mutagenic call,[3],active; positive
same,mutagenic call,"Species/Cell Type: Salmonella typhimurium, Assay Type: Forward and reverse gene mutation, host-mediated assay, Assay Code: HMA+, Evaluation Type: Evaluation A (Pre-1980)",active; positive
CCCCN(CC(O)CCO)N=O (stereo not given),mutagenic call,[3],active; positive
Cc1cc(N)c(N)cc1C,mutagenic call,[4],no conclusion
Cc1cccc(C)c1O,mutagenic call,[5],no conclusion
c1cc2cccc3c4cccc5cccc(c(c1)c23)c54,mutagenic call,"Species/Cell Type: Chinese hamster lung (V79) cells, Assay Type: Forward gene mutation, host-mediated assay, Assay Code: HMG-, Evaluation Type: Evaluation A (Pre-1980)",inactive; negative
same,mutagenic call,"Species/Cell Type: Nonhuman, Assay Type: Sister-chromatid exchange (SCE) in vivo, Assay Code: SC3-, Evaluation Type: Evaluation A (Pre-1980)",inactive; negative
Cc1ccc2c(c1[N+](=O)[O-])C(=O)c1cccc([N+](=O)[O-])c1C2=O,mutagenic call,[6],active; positive
CCOP(=S)(OCC)Oc1nc(Cl)c(Cl)cc1Cl,mutagenic call,[7],no conclusion
same,mutagenic call,[8],active; positive
same,mutagenic call,[9],inactive; negative
same,mutagenic call,"Species/Cell Type: Human, Assay Type: Sister-chromatid exchange (SCE) in vitro, Assay Code: SC1+D, Dose Response: With dose response, Evaluation Type: Evaluation B (Post-1980)",active; positive
same,mutagenic call,"Species/Cell Type: Nonhuman, Assay Type: Sister-chromatid exchange (SCE) in vitro, Assay Code: SC2T, Evaluation Type: Evaluation B (Post-1980)",no conclusion
same,mutagenic call,"Species/Cell Type: Nonhuman, Assay Type: Sister-chromatid exchange (SCE) in vivo, Assay Code: SC3-, Evaluation Type: Evaluation B (Post-1980)",inactive; negative
same,mutagenic call,[10],inactive; negative
same,mutagenic call,[11],no conclusion
Cc1ccc2c(ccc3c4c(ccc32)C(=O)CC4)c1,mutagenic call,[11],no conclusion
O.O.O.O.O.O.O.O.O.O=[N+]([O-])[O-].O=[N+]([O-])[O-].O=[N+]([O-])[O-].[Cr+3],mutagenic call,[2],active; positive
CC(=O)c1ccc([N+](=O)[O-])o1,mutagenic call,[6],active; positive
Cc1cc(/C=C/c2ccc3cc(N(C)C)ccc3[n+]2C)c(C)n1-c1ccccc1,mutagenic call,[2],active; positive
same,mutagenic call,[3],active; positive
COc1cc([N+](=O)[O-])ccc1N=Nc1ccccc1,mutagenic call,[11],no conclusion
O=NN1CCC(Cl)CC1,mutagenic call,[1],active; positive
same,mutagenic call,[3],active; positive
C[N+](C)(C)CCCl,call,"Species/Cell Type: Nonhuman, Assay Code: CCG-, Evaluation Type: Evaluation A (Pre-1980)",inactive; negative
same,mutagenic call,"Species/Cell Type: Vicia faba, Assay Type: Chromosome aberrations, Assay Code: VIC+D, Dose Response: With dose response, Evaluation Type: Evaluation A (Pre-1980)",active; positive
CCC(C)c1cc([N+](=O)[O-])cc([N+](=O)[O-])c1O (stereo not given),mutagenic call,[12],active; positive
same,mutagenic call,[7],no conclusion
same,mutagenic call,"Species/Cell Type: Escherichia coli WP2 UVRA, Assay Type: Tryptophan reverse gene mutation, Assay Code: WPU-*, Activation: With metabolic activation, Evaluation Type: Evaluation A (Pre-1980)",inactive; negative
same,mutagenic call,[8],active; positive
same,mutagenic call,[9],inactive; negative
same,mutagenic call,[13],active; positive
same,mutagenic call,[10],inactive; negative
same,mutagenic call,[11],no conclusion
COc1cccc2oc3c4c(cc(OC)c3c(=O)c12)O[C@H]1OC=C[C@@H]41,mutagenic call,[11],no conclusion
O=C(O)C1=NN(c2ccc(S(=O)(=O)O)cc2)C(=O)C1N=Nc1ccc(S(=O)(=O)O)cc1 (stereo not given),mutagenic call,"Species/Cell Type: Bacillus subtilis (H17 vs M45T), Assay Type: Rec-assay, spot test, DNA effects (bacterial DNA repair), Assay Code: REXT, Evaluation Type: Evaluation A (Pre-1980)",no conclusion
same,mutagenic call,"Species/Cell Type: Fischer rat embryo (RLV/1706) cells, Assay Type: Cell transformation, viral enhanced, Assay Code: CTR-, Evaluation Type: Evaluation A (Pre-1980)",inactive; negative
same,mutagenic call,[4],no conclusion
same,mutagenic call,[14],inactive; negative
same,mutagenic call,"Species/Cell Type: Salmonella typhimurium (one or more of the five standard strains: TA98, TA100, TA1535, TA1537, and TA1538), Assay Type: Histidine reverse gene mutation, Ames assay, Assay Code: SAL-, Evaluation Type: Evaluation A (Pre-1980)",inactive; negative
O[C@@H]1C=Cc2cc3ccc4cccc5ccc(c2[C@H]1O)c3c45,mutagenic call,"Species/Cell Type: Chinese hamster lung (V79) cells, Assay Type: Forward gene mutation at the HPRT or ouabain locus, Assay Code: V79-*, Activation: With metabolic activation, Evaluation Type: Evaluation A (Pre-1980)",inactive; negative
same,call,"Species/Cell Type: Nonhuman, Assay Code: CCGT, Evaluation Type: Evaluation A (Pre-1980)",no conclusion
same,mutagenic call,"Species/Cell Type: Nonhuman, Assay Type: Sister-chromatid exchange (SCE) in vitro, Assay Code: SC2+, Evaluation Type: Evaluation A (Pre-1980)",active; positive
same,mutagenic call,[11],no conclusion
same,mutagenic call,"Species/Cell Type: Syrian hamster embryo (SHE) cells, Assay Type: Cell transformation, clonal assay, Assay Code: CTCT, Evaluation Type: Evaluation A (Pre-1980)",no conclusion
CCCCCOC(=O)COc1cc(Cl)c(Cl)cc1Cl,mutagenic call,[14],inactive; negative
C[As]=S (stereo not given),mutagenic call,[12],active; positive
CCOC(=O)N(CCOC(C)=O)N=O,mutagenic call,[6],active; positive
C[C@]12CCC3=C4CCC(=O)C=C4CC[C@H]3[C@@H]1CC[C@@]2(O)CC#N,mutagenic call,"Species/Cell Type: Rabbit, Sex: Male, Assay Type: Sperm morphology, Assay Code: SPR+, Evaluation Type: Evaluation A (Pre-1980)",active; positive
COc1cc([N+](=O)[O-])c2ncccc2c1,mutagenic call,[6],active; positive
c1ccc2c(c1)ccc1ncccc12,mutagenic call,[3],active; positive
CCCC(=O)Nc1ccc(OCC(O)CNC(C)C)c(C(C)=O)c1 (stereo not given),mutagenic call,"Species/Cell Type: Mammalian polychromatic erythrocytes, Assay Type: Micronucleus test, chromosome aberrations, Assay Code: MNT+, Evaluation Type: Evaluation B (Post-1980)",active; positive
CCN(Cc1ccccc1)c1ccc(C(=C2C=CC(=[N+](CC)Cc3ccccc3)C=C2)c2ccc(S(=O)(=O)O)cc2S(=O)(=O)[O-])cc1,mutagenic call,"Species/Cell Type: Bacillus subtilis (H17 vs M45), Assay Type: Rec-assay, spot test, DNA effects (bacterial DNA repair), Assay Code: REWT, Evaluation Type: Evaluation A (Pre-1980)",no conclusion
O=C[C@H](O)[C@@H](O)[C@H](O[C@@H]1O[C@H](CO)[C@H](O)[C@H](O)[C@H]1O)[C@H](O)CO,mutagenic call,[5],no conclusion
same,mutagenic call,"Species/Cell Type: Human, Assay Type: Sister-chromatid exchange (SCE) in vitro, Assay Code: SC1T, Evaluation Type: Evaluation B (Post-1980)",no conclusion
same,mutagenic call,"Species/Cell Type: Nonhuman, Assay Type: Sister-chromatid exchange (SCE) in vivo, Assay Code: SC3T, Evaluation Type: Evaluation B (Post-1980)",no conclusion
C1O[C@@H]1[C@H]1CO1,mutagenic call,"Species/Cell Type: Allium cepa, Assay Type: Chromosome aberrations, Assay Code: ALC+D, Dose Response: With dose response, Evaluation Type: Evaluation A (Pre-1980)",active; positive
same,mutagenic call,"Species/Cell Type: Arabidopsis species, Assay Type: Gene mutation, Assay Code: ARM+, Evaluation Type: Evaluation A (Pre-1980)",active; positive
same,mutagenic call,"Species/Cell Type: Schizosaccharomyces pombe, Assay Type: Reverse gene mutation, Assay Code: YEZ+, Evaluation Type: Evaluation A (Pre-1980)",active; positive
same,mutagenic call,"Species/Cell Type: Zea mays (corn), Assay Type: Gene mutation, Assay Code: ZEM+, Evaluation Type: Evaluation A (Pre-1980)",active; positive
NC(Cc1ccc(F)cc1)C(=O)O (stereo not given),mutagenic call,"Species/Cell Type: Aspergillus nidulans, Assay Type: Aneuploidy, chromosome aberrations, Assay Code: ASN+, Evaluation Type: Evaluation A (Pre-1980)",active; positive
same,mutagenic call,"Species/Cell Type: Aspergillus nidulans, Assay Type: Mitotic recombination, Assay Code: ASG-, Evaluation Type: Evaluation A (Pre-1980)",inactive; negative
same,mutagenic call,"Species/Cell Type: Neurospora crassa, Assay Type: Aneuploidy, chromosome aberrations, Assay Code: NEN+, Evaluation Type: Evaluation A (Pre-1980)",active; positive
same,mutagenic call,"Species/Cell Type: Saccharomyces cerevisiae, Assay Type: Aneuploidy, chromosome aberrations, Assay Code: YEN+, Evaluation Type: Evaluation A (Pre-1980)",active; positive
same,mutagenic call,"Species/Cell Type: Saccharomyces cerevisiae, Assay Type: Forward gene mutation, Assay Code: YEF+, Evaluation Type: Evaluation A (Pre-1980)",active; positive
same,mutagenic call,[13],active; positive
same,mutagenic call,"Species/Cell Type: Saccharomyces cerevisiae, Assay Type: Reverse gene mutation, Assay Code: YER+, Evaluation Type: Evaluation A (Pre-1980)",active; positive
